In PubChem BioAssay (NCI):
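Each compound was tested at five concentrations against cells in 96-well plates for 48 hours. TGI: concentration producing complete growth inhibition.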

What was measured:
Experiment in all cases: growth of human tumour cells (NCI), 48 h
ACHN renal = test system: ACHN renal
MDA-MB-435 = test system: MDA-MB-435
786-0 renal = test system: 786-0 renal
A549 NSCLC = test system: A549 NSCLC
OVCAR-5 ovarian = test system: OVCAR-5 ovarian
SK-OV-3 ovarian = test system: SK-OV-3 ovarian
NCI/ADR-RES ovarian = test system: NCI/ADR-RES ovarian
NCI-H226 lung = test system: NCI-H226 lung
HCT-116 colon = test system: HCT-116 colon
UACC-62 melanoma = test system: UACC-62 melanoma
NCI-H522 lung = test system: NCI-H522 lung
EKVX NSCLC = test system: EKVX NSCLC
TK-10 renal = test system: TK-10 renal
UO-31 renal = test system: UO-31 renal
RPMI-8226 leukemia = test system: RPMI-8226 leukemia
K-562 leukemia = test system: K-562 leukemia
HS 578T breast = test system: HS 578T breast
SK-MEL-2 melanoma = test system: SK-MEL-2 melanoma
MDA-N = test system: MDA-N

CCSc1nc(N2CCOCC2)c2cn[nH]c2n1
TGI (ACHN renal): > 100 µM
TGI (MDA-MB-435): > 100 µM
TGI (786-0 renal): > 100 µM
TGI (A549 NSCLC): > 100 µM
TGI (OVCAR-5 ovarian): > 100 µM
TGI (SK-OV-3 ovarian): > 100 µM
TGI (NCI/ADR-RES ovarian): > 100 µM
TGI (NCI-H226 lung): > 100 µM
TGI (HCT-116 colon): > 100 µM
TGI (UACC-62 melanoma): > 100 µM
TGI (NCI-H522 lung): > 100 µM
TGI (EKVX NSCLC): > 100 µM
TGI (TK-10 renal): > 100 µM
TGI (UO-31 renal): > 100 µM
TGI (RPMI-8226 leukemia): > 100 µM
TGI (K-562 leukemia): > 100 µM
TGI (HS 578T breast): > 100 µM
TGI (SK-MEL-2 melanoma): > 100 µM

COc1cc(C2c3cc4c(cc3[C@@H](Nc3ccccc3)C3CO[C@@H](OC)[C@H]23)OCO4)cc(OC)c1O (stereo partly specified)
TGI (ACHN renal): 10.6 µM
TGI (MDA-MB-435): > 25 µM
TGI (786-0 renal): 15.4 µM
TGI (A549 NSCLC): 12.1 µM
TGI (OVCAR-5 ovarian): 23.8 µM
TGI (SK-OV-3 ovarian): > 25 µM
TGI (NCI/ADR-RES ovarian): > 25 µM
TGI (HCT-116 colon): > 25 µM
TGI (NCI-H522 lung): > 25 µM
TGI (EKVX NSCLC): > 25 µM
TGI (TK-10 renal): > 25 µM
TGI (UO-31 renal): 8.03 µM
TGI (RPMI-8226 leukemia): 10.2 µM
TGI (K-562 leukemia): > 25 µM
TGI (HS 578T breast): 17.3 µM

CC1=CC(=O)NCCN1C
TGI (ACHN renal): > 100 µM
TGI (786-0 renal): > 100 µM
TGI (A549 NSCLC): > 100 µM
TGI (OVCAR-5 ovarian): > 100 µM
TGI (SK-OV-3 ovarian): > 100 µM
TGI (NCI-H226 lung): > 100 µM
TGI (HCT-116 colon): > 100 µM
TGI (UACC-62 melanoma): > 100 µM
TGI (NCI-H522 lung): > 100 µM
TGI (EKVX NSCLC): > 100 µM
TGI (TK-10 renal): > 100 µM
TGI (UO-31 renal): > 100 µM
TGI (K-562 leukemia): > 100 µM
TGI (SK-MEL-2 melanoma): > 100 µM

O=C1CCC(c2ccccc2)C(O)(C(=O)O)C1 (stereo unspecified)
TGI (ACHN renal): > 100 µM
TGI (786-0 renal): > 100 µM
TGI (A549 NSCLC): > 100 µM
TGI (OVCAR-5 ovarian): > 100 µM
TGI (SK-OV-3 ovarian): > 100 µM
TGI (NCI-H226 lung): > 100 µM
TGI (HCT-116 colon): > 100 µM
TGI (UACC-62 melanoma): > 100 µM
TGI (NCI-H522 lung): > 100 µM
TGI (EKVX NSCLC): > 100 µM
TGI (TK-10 renal): > 100 µM
TGI (UO-31 renal): > 100 µM
TGI (RPMI-8226 leukemia): > 100 µM
TGI (K-562 leukemia): > 100 µM
TGI (SK-MEL-2 melanoma): > 100 µM

COc1cccc(C2c3cc4c(cc3OC(N3CCCC3)C2C)OCO4)c1 (stereo unspecified)
TGI (ACHN renal): 83.8 µM
TGI (MDA-MB-435): 11.6 µM
TGI (786-0 renal): 33.7 µM
TGI (A549 NSCLC): > 100 µM
TGI (OVCAR-5 ovarian): 82.1 µM
TGI (NCI/ADR-RES ovarian): 33.5 µM
TGI (HCT-116 colon): 18.3 µM
TGI (UACC-62 melanoma): 34.5 µM
TGI (NCI-H522 lung): 22.5 µM
TGI (EKVX NSCLC): 94.1 µM
TGI (TK-10 renal): > 100 µM
TGI (UO-31 renal): 41.4 µM
TGI (RPMI-8226 leukemia): 24.3 µM
TGI (K-562 leukemia): 5.72 µM
TGI (HS 578T breast): 34.6 µM
TGI (SK-MEL-2 melanoma): 23.6 µM

CCCCCCCCCCCCCCCCCc1cccc(OCOCCOC)c1CO
TGI (ACHN renal): > 100 µM
TGI (MDA-MB-435): > 100 µM
TGI (786-0 renal): > 100 µM
TGI (A549 NSCLC): > 100 µM
TGI (OVCAR-5 ovarian): > 100 µM
TGI (SK-OV-3 ovarian): > 100 µM
TGI (NCI/ADR-RES ovarian): > 100 µM
TGI (NCI-H226 lung): > 100 µM
TGI (HCT-116 colon): > 100 µM
TGI (UACC-62 melanoma): > 100 µM
TGI (NCI-H522 lung): > 100 µM
TGI (EKVX NSCLC): > 100 µM
TGI (TK-10 renal): > 100 µM
TGI (UO-31 renal): > 100 µM
TGI (RPMI-8226 leukemia): > 100 µM
TGI (K-562 leukemia): > 100 µM
TGI (HS 578T breast): > 100 µM
TGI (SK-MEL-2 melanoma): > 100 µM

CO/N=C(\C(=O)Nc1cncs1)c1csc(NC(c2ccccc2)(c2ccccc2)c2ccccc2)n1
TGI (ACHN renal): > 10 µM
TGI (MDA-N): > 10 µM
TGI (786-0 renal): > 10 µM
TGI (A549 NSCLC): > 10 µM
TGI (OVCAR-5 ovarian): > 10 µM
TGI (SK-OV-3 ovarian): > 10 µM
TGI (NCI/ADR-RES ovarian): > 10 µM
TGI (NCI-H226 lung): > 10 µM
TGI (HCT-116 colon): > 10 µM
TGI (NCI-H522 lung): > 10 µM
TGI (EKVX NSCLC): > 10 µM
TGI (TK-10 renal): > 10 µM
TGI (UO-31 renal): > 10 µM
TGI (RPMI-8226 leukemia): > 10 µM
TGI (K-562 leukemia): > 10 µM
TGI (HS 578T breast): > 10 µM
TGI (SK-MEL-2 melanoma): > 10 µM

CN(C)/N=C(\CCN1CCCC1)CC(c1ccccc1)c1c(O)c2ccccc2oc1=O (stereo unspecified)
TGI (ACHN renal): > 100 µM
TGI (786-0 renal): > 100 µM
TGI (A549 NSCLC): > 100 µM
TGI (OVCAR-5 ovarian): > 100 µM
TGI (SK-OV-3 ovarian): > 100 µM
TGI (NCI-H226 lung): > 100 µM
TGI (HCT-116 colon): > 100 µM
TGI (UACC-62 melanoma): > 100 µM
TGI (NCI-H522 lung): > 100 µM
TGI (EKVX NSCLC): > 100 µM
TGI (TK-10 renal): > 100 µM
TGI (RPMI-8226 leukemia): > 100 µM
TGI (K-562 leukemia): > 100 µM
TGI (SK-MEL-2 melanoma): > 100 µM

CC1=CC(=O)NP(=O)(Oc2ccc(C)cc2)N1 (stereo unspecified)
TGI (ACHN renal): > 100 µM
TGI (786-0 renal): > 100 µM
TGI (OVCAR-5 ovarian): > 100 µM
TGI (SK-OV-3 ovarian): > 100 µM
TGI (NCI-H226 lung): > 100 µM
TGI (HCT-116 colon): > 100 µM
TGI (UACC-62 melanoma): > 100 µM
TGI (NCI-H522 lung): > 100 µM
TGI (EKVX NSCLC): > 100 µM
TGI (TK-10 renal): > 100 µM
TGI (UO-31 renal): > 100 µM
TGI (RPMI-8226 leukemia): > 100 µM
TGI (K-562 leukemia): > 100 µM
TGI (SK-MEL-2 melanoma): > 100 µM

Cc1cc(=O)[nH]c(NNC(C#N)c2ccc(O)cc2)n1 (stereo unspecified)
TGI (ACHN renal): > 100 µM
TGI (786-0 renal): > 100 µM
TGI (A549 NSCLC): > 100 µM
TGI (OVCAR-5 ovarian): > 100 µM
TGI (SK-OV-3 ovarian): > 100 µM
TGI (NCI-H226 lung): > 100 µM
TGI (HCT-116 colon): > 100 µM
TGI (UACC-62 melanoma): > 100 µM
TGI (NCI-H522 lung): > 100 µM
TGI (TK-10 renal): > 100 µM
TGI (UO-31 renal): > 100 µM
TGI (RPMI-8226 leukemia): > 100 µM
TGI (K-562 leukemia): > 100 µM
TGI (SK-MEL-2 melanoma): > 100 µM

Cc1ccc2nc3ccccc3c(C3C4C(=O)N(c5ccc(Br)cc5Cl)C(=O)C4ON3C(C(N)=O)c3ccccc3)c2c1 (stereo unspecified)
TGI (ACHN renal): 15.3 µM
TGI (MDA-MB-435): > 25 µM
TGI (MDA-N): 23.6 µM
TGI (786-0 renal): > 25 µM
TGI (A549 NSCLC): > 25 µM
TGI (OVCAR-5 ovarian): > 25 µM
TGI (SK-OV-3 ovarian): > 25 µM
TGI (NCI-H226 lung): > 25 µM
TGI (HCT-116 colon): > 25 µM
TGI (UACC-62 melanoma): > 25 µM
TGI (NCI-H522 lung): > 25 µM
TGI (EKVX NSCLC): 15.5 µM
TGI (TK-10 renal): > 25 µM
TGI (UO-31 renal): 12.9 µM
TGI (K-562 leukemia): > 25 µM
TGI (HS 578T breast): > 25 µM
TGI (SK-MEL-2 melanoma): > 25 µM

O=C1NNC(=O)C2C3c4ccccc4C(c4ccccc43)C12 (stereo unspecified)
TGI (ACHN renal): > 100 µM
TGI (MDA-N): > 100 µM
TGI (786-0 renal): > 100 µM
TGI (A549 NSCLC): > 100 µM
TGI (OVCAR-5 ovarian): > 100 µM
TGI (SK-OV-3 ovarian): > 100 µM
TGI (NCI/ADR-RES ovarian): > 100 µM
TGI (NCI-H226 lung): > 100 µM
TGI (HCT-116 colon): > 100 µM
TGI (UACC-62 melanoma): > 100 µM
TGI (EKVX NSCLC): > 100 µM
TGI (TK-10 renal): > 100 µM
TGI (UO-31 renal): > 100 µM
TGI (RPMI-8226 leukemia): > 100 µM
TGI (K-562 leukemia): > 100 µM
TGI (HS 578T breast): > 100 µM

CC1CN=C(Nc2ccc(S(N)(=O)=O)cc2)S1 (stereo unspecified)
TGI (ACHN renal): > 100 µM
TGI (MDA-N): > 10 µM
TGI (786-0 renal): > 100 µM
TGI (A549 NSCLC): > 100 µM
TGI (OVCAR-5 ovarian): > 100 µM
TGI (SK-OV-3 ovarian): > 100 µM
TGI (NCI/ADR-RES ovarian): > 100 µM
TGI (HCT-116 colon): > 100 µM
TGI (EKVX NSCLC): > 100 µM
TGI (TK-10 renal): > 100 µM
TGI (UO-31 renal): > 100 µM
TGI (RPMI-8226 leukemia): > 100 µM
TGI (K-562 leukemia): > 100 µM
TGI (HS 578T breast): > 100 µM
TGI (SK-MEL-2 melanoma): > 100 µM

CNC(=O)N1CCN(C(=O)NC)CCN(C(=O)NC)CC1
TGI (ACHN renal): > 100 µM
TGI (MDA-N): > 100 µM
TGI (786-0 renal): > 100 µM
TGI (A549 NSCLC): > 100 µM
TGI (OVCAR-5 ovarian): > 100 µM
TGI (SK-OV-3 ovarian): > 100 µM
TGI (NCI/ADR-RES ovarian): > 100 µM
TGI (NCI-H226 lung): > 100 µM
TGI (HCT-116 colon): > 100 µM
TGI (UACC-62 melanoma): > 100 µM
TGI (NCI-H522 lung): > 100 µM
TGI (EKVX NSCLC): > 100 µM
TGI (TK-10 renal): > 100 µM
TGI (UO-31 renal): > 100 µM
TGI (RPMI-8226 leukemia): > 100 µM
TGI (K-562 leukemia): > 100 µM
TGI (HS 578T breast): > 100 µM
TGI (SK-MEL-2 melanoma): > 100 µM
